Experimental data reported in the NIST ThermoML archive (doi:10.1021/je060420p).
± gives the expanded uncertainty stated by the source.

Tests used:
[1] = refractive index (Na D-line) (dimensionless); details: 101.33 kPa, Liquid, Standard Abbe refractometry
[2] = 101.33 kPa, Liquid
[3] = excess molar enthalpy (molar enthalpy of mixing); xn = mol fraction of the nth substance listed; details: 101 kPa, Liquid, Calvet calorimetry

Structure (SMILES): Cc1ccc(C(C)C)cc1 [1-(1-methylethyl)-4-methylbenzene]
- refractive index ([1]; 298.15 K): 1.4878 ± 0.0006
- refractive index ([1]; 308.15 K): 1.4831 ± 0.0006
- refractive index ([1]; 318.15 K): 1.4789 ± 0.0006
- mass density ([2]; 298.15 K): 853.47 ± 1.1 kg/m3
- mass density ([2]; 308.15 K): 845.59 ± 1.1 kg/m3
- mass density ([2]; 318.15 K): 838.46 ± 1.1 kg/m3

Structure (SMILES): CC1=CCC2CC1C2(C)C (centres undefined) [2-pinene]
- refractive index ([1]; 298.15 K): 1.4626 ± 0.0006
- refractive index ([1]; 308.15 K): 1.4581 ± 0.0006
- refractive index ([1]; 318.15 K): 1.4542 ± 0.0006
- mass density ([2]; 298.15 K): 854.03 ± 0.93 kg/m3
- mass density ([2]; 308.15 K): 845.79 ± 0.97 kg/m3
- mass density ([2]; 318.15 K): 838.64 ± 1 kg/m3

Structure (SMILES): CC1=CCC2CC1C2(C)C (centres undefined) [2-pinene] + C=C1CCC2CC1C2(C)C
- excess molar enthalpy ([3]; 298.15 K, x1 = 0.2012): 0.00167 ± 0.000191 kcal/mol
- excess molar enthalpy ([3]; 298.15 K, x1 = 0.3013): 0.0022 ± 0.000191 kcal/mol
- excess molar enthalpy ([3]; 298.15 K, x1 = 0.3987): 0.00253 ± 0.000215 kcal/mol
- excess molar enthalpy ([3]; 298.15 K, x1 = 0.4993): 0.00265 ± 0.000215 kcal/mol
- excess molar enthalpy ([3]; 298.15 K, x1 = 0.5994): 0.00246 ± 0.000215 kcal/mol
- excess molar enthalpy ([3]; 298.15 K, x1 = 0.7023): 0.00227 ± 0.000215 kcal/mol
- excess molar enthalpy ([3]; 298.15 K, x1 = 0.7998): 0.00174 ± 0.000191 kcal/mol
- excess molar enthalpy ([3]; 308.15 K, x1 = 0.2): 0.00179 ± 0.000191 kcal/mol
- excess molar enthalpy ([3]; 308.15 K, x1 = 0.3004): 0.00241 ± 0.000215 kcal/mol
- excess molar enthalpy ([3]; 308.15 K, x1 = 0.3999): 0.00272 ± 0.000215 kcal/mol
- excess molar enthalpy ([3]; 308.15 K, x1 = 0.5006): 0.00284 ± 0.000215 kcal/mol
- excess molar enthalpy ([3]; 308.15 K, x1 = 0.6013): 0.00261 ± 0.000215 kcal/mol
- excess molar enthalpy ([3]; 308.15 K, x1 = 0.6972): 0.00237 ± 0.000215 kcal/mol
- excess molar enthalpy ([3]; 308.15 K, x1 = 0.7998): 0.00177 ± 0.000191 kcal/mol
- excess molar enthalpy ([3]; 318.15 K, x1 = 0.2003): 0.0021 ± 0.000191 kcal/mol
- excess molar enthalpy ([3]; 318.15 K, x1 = 0.3001): 0.00268 ± 0.000215 kcal/mol
- excess molar enthalpy ([3]; 318.15 K, x1 = 0.4034): 0.00304 ± 0.000215 kcal/mol
- excess molar enthalpy ([3]; 318.15 K, x1 = 0.5): 0.00315 ± 0.000215 kcal/mol
- excess molar enthalpy ([3]; 318.15 K, x1 = 0.6004): 0.00301 ± 0.000215 kcal/mol
- excess molar enthalpy ([3]; 318.15 K, x1 = 0.7012): 0.00272 ± 0.000215 kcal/mol
- excess molar enthalpy ([3]; 318.15 K, x1 = 0.7975): 0.00201 ± 0.000191 kcal/mol

Structure (SMILES): C=C1CCC2CC1C2(C)C (stereo not drawn) [β-pinene]
- refractive index ([1]; 298.15 K): 1.476 ± 0.0006
- refractive index ([1]; 308.15 K): 1.4714 ± 0.0006
- refractive index ([1]; 318.15 K): 1.4665 ± 0.0006
- mass density ([2]; 298.15 K): 867.06 ± 0.9 kg/m3
- mass density ([2]; 308.15 K): 859.08 ± 0.93 kg/m3
- mass density ([2]; 318.15 K): 852.08 ± 0.96 kg/m3
